# Assay results from ChEMBL document CHEMBL3769336, “Discovery of a Chemical Tool Inhibitor Targeting the Bromodomains of TRIM24 and BRPF” (J Med Chem, 2016).
# The source made the active and inactive calls. No cut-off for these calls is given here.
# Assays:
# [1] = target: T1, Transcription intermediary factor 1-alpha (Homo sapiens, UniProt O15164); assay: Binding affinity to N-terminal His6-SUMO-1-tagged recombinant human TRIM24 bromodomain expressed in Escherichia coli BL21(DE3)-R3-pRARE2 cells by isothermal titration calorimetry
# T1 sequence (O15164 whole entry): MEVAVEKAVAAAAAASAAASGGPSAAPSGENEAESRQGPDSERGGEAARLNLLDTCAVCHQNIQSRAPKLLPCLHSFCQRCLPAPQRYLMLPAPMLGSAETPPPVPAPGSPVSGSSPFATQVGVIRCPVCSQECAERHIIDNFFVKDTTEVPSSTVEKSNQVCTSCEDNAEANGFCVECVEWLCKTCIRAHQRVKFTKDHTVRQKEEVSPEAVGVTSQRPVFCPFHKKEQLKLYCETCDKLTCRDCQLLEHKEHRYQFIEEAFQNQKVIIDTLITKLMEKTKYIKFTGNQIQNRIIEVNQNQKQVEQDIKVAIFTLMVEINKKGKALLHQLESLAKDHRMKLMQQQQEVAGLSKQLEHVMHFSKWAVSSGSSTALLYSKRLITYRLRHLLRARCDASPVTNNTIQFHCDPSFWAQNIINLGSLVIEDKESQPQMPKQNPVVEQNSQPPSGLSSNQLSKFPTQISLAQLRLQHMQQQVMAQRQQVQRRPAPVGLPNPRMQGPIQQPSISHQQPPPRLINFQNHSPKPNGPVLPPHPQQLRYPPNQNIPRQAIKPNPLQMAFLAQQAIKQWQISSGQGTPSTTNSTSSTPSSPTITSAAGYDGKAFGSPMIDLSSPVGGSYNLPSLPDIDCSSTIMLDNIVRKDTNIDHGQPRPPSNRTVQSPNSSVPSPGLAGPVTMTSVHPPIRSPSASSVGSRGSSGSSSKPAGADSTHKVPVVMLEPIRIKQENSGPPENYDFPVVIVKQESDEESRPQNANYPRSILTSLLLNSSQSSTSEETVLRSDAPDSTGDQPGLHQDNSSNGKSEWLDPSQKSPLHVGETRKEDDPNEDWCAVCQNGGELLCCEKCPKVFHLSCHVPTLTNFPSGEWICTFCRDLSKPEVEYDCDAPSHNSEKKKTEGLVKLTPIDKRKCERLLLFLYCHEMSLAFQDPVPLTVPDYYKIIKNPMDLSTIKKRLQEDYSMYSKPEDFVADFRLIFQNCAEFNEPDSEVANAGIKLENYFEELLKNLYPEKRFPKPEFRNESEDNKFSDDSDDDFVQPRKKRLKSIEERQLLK
# [2] = system: MCF7; assay: Cytotoxicity against human MCF7 cells at 5x10'-5 M to 8x10'-8 M after 72 hrs by CellTiter-Glo assay; assay type: functional, cell-based
# [3] = target: T1, Transcription intermediary factor 1-alpha; assay: Inhibition of N-terminal His6-SUMO-1-tagged recombinant human TRIM24 bromodomain expressed in Escherichia coli BL21(DE3)-R3-pRARE2 cells by Alpha Screen assay
# [4] = system: RKO; assay: Cytotoxicity against human RKO cells at 5x10'-5 M to 8x10'-8 M after 72 hrs by CellTiter-Glo assay; assay type: functional, cell-based
# [5] = target: T2, Peregrin (Homo sapiens, UniProt P55201); assay: Binding affinity to BRPF1B (unknown origin) by isothermal titration calorimetry
# T2 sequence (P55201 whole entry): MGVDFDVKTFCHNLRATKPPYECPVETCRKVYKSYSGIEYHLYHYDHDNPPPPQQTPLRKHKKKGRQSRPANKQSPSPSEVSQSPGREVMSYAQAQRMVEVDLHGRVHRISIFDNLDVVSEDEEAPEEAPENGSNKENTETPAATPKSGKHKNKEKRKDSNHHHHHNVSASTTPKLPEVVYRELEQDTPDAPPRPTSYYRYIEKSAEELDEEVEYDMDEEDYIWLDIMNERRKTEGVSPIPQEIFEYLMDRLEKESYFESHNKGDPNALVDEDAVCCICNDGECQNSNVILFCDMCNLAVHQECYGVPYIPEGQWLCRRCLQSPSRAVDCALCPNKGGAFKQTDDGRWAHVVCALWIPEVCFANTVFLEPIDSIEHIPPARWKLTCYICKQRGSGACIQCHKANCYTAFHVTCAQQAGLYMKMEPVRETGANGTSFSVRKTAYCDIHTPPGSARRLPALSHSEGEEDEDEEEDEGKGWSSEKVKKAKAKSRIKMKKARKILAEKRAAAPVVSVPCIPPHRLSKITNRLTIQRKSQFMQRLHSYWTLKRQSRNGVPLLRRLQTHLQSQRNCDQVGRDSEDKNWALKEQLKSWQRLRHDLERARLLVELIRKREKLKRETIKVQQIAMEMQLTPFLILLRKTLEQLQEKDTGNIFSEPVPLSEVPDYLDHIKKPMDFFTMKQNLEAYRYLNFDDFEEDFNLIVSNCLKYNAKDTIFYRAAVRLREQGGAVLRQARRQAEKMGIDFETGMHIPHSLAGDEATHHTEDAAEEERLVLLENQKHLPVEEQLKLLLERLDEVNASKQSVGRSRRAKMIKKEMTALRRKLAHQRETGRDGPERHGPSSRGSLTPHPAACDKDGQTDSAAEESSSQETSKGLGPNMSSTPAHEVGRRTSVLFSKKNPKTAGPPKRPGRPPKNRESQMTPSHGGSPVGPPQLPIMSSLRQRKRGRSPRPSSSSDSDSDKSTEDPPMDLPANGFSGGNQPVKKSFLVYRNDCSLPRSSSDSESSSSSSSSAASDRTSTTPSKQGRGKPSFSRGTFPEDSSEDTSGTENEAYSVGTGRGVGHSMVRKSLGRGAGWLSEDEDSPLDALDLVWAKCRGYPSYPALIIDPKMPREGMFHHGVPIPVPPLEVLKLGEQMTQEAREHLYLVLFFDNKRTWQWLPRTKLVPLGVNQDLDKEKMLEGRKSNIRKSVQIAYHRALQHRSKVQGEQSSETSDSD
# [6] = target: T2, Peregrin; assay: Inhibition of BRPF1B (unknown origin) by Alpha Screen assay
smiles,measurement,setting,value
COc1ccc(Oc2cc3c(cc2NS(=O)(=O)c2ccc(OC)c(OC)c2)n(C)c(=O)n3C)cc1,Kd,[1],222 nM
same,Activity,[2],inactive
same,IC50,[3],430 nM
same,Activity,[4],inactive
same,Kd,[5],137 nM
same,IC50,[6],340 nM
